In assay [1] the target is Matrix metalloproteinase-9 (Homo sapiens, UniProt P14780).
Description: Inhibitory activity against the Matrix metalloprotease-9
In assay [2] the target is Neutrophil collagenase (Homo sapiens, UniProt P22894).
Description: Inhibitory activity against the Matrix Metalloprotease-8
In assay [3] the target is T1, Interstitial collagenase (Homo sapiens, UniProt P03956).
T1 sequence (P03956 whole entry): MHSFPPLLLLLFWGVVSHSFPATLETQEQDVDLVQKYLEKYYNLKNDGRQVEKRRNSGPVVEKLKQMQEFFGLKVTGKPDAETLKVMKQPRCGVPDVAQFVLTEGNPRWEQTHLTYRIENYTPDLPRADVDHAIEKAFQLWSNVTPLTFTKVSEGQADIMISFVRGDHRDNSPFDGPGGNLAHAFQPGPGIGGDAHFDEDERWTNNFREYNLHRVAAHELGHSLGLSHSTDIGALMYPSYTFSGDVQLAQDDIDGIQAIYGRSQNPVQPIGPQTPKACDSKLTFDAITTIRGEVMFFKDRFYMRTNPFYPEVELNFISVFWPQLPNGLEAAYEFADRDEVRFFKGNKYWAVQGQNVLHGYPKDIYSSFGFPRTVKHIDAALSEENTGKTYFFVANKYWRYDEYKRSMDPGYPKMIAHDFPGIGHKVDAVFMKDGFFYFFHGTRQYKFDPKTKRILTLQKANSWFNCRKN
Description: Inhibitory activity against the Matrix Metalloprotease 1 (MMP-1)

The target in assay [4] is 72 kDa type IV collagenase (Homo sapiens, UniProt P08253).
72 kDa type IV collagenase, sequence (P08253 whole entry): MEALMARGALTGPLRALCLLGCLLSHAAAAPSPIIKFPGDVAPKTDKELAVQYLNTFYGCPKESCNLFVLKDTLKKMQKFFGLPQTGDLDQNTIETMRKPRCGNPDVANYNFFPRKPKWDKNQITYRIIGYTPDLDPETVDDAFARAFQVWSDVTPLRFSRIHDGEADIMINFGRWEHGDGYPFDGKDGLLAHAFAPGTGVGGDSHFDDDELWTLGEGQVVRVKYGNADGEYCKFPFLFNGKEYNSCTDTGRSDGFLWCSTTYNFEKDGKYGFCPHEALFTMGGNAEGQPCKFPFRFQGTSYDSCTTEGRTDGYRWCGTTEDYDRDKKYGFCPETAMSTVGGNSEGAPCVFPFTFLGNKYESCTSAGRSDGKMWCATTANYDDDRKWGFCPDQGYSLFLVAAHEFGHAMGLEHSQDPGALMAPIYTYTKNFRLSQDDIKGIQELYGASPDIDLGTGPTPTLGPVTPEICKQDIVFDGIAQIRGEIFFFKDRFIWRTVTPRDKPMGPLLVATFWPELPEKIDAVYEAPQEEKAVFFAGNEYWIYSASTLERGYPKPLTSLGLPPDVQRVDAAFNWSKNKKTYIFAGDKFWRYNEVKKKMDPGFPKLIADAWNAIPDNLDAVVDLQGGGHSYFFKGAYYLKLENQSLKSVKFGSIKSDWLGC
Description: Inhibitory activity against the Matrix Metalloprotease 2 (MMP-2)

Matrix metalloproteinase-9, sequence (P14780 whole entry): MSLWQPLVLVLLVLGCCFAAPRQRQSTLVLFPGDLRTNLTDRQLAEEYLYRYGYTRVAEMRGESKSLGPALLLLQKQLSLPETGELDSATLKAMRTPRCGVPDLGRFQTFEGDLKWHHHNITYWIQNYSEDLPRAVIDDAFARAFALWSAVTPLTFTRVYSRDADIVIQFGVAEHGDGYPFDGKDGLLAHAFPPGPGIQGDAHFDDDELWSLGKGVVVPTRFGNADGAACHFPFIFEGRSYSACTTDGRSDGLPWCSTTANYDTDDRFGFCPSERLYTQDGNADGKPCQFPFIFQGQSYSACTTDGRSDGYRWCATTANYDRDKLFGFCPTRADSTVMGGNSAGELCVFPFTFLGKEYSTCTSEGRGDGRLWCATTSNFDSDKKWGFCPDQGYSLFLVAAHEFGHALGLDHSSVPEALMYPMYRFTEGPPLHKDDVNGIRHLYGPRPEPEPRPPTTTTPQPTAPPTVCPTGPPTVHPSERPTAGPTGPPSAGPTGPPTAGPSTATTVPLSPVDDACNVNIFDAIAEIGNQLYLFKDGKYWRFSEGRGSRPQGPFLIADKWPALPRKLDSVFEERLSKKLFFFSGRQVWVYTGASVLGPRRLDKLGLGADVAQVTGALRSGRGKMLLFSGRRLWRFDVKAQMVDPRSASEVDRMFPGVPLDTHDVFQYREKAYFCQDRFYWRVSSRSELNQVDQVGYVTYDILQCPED
Neutrophil collagenase, sequence (P22894 whole entry): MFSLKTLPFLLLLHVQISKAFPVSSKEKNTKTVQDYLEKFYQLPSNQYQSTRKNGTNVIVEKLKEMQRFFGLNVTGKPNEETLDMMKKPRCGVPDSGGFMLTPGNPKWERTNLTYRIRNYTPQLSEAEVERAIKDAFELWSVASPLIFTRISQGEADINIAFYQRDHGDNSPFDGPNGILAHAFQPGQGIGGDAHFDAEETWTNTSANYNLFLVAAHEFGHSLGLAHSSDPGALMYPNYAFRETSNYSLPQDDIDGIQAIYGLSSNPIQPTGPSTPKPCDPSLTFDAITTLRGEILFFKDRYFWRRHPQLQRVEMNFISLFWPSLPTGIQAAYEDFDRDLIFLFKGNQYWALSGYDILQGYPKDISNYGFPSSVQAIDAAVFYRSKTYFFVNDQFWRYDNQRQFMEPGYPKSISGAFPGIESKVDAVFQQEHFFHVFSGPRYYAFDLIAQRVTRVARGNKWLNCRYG

Take `O=C(CN(Cc1ccc([N+](=O)[O-])cc1)S(=O)(=O)c1cccc(NC(=O)NS(=O)(=O)c2ccc(F)cc2)c1)NO`: the Ki is 2.5 nM in assay [1], 1.4 nM in assay [2], 49 nM in assay [3] and 1.8 nM in assay [4].
Turning to `O=C(CN(Cc1ccc([N+](=O)[O-])cc1)C(=O)NS(=O)(=O)c1ccccc1)NO`, the Ki in assay [1] worked out at 3 nM; in assay [2] it was 4 nM; in assay [3], 39 nM; in assay [4] it was 5 nM.
The like results for `Cc1ccccc1S(=O)(=O)NC(=O)Nc1cccc(S(=O)(=O)N(CC(=O)NO)Cc2ccc([N+](=O)[O-])cc2)c1` were, in that order, 3 nM, 2 nM, 58 nM and 2.8 nM.
The like results for `O=C(CN(Cc1ccc([N+](=O)[O-])cc1)S(=O)(=O)c1ccc([N+](=O)[O-])cc1)NO` were, in that order, 8 nM, 7 nM, 15 nM and 9 nM.
As to `O=C(CN(Cc1ccc([N+](=O)[O-])cc1)C(=O)NS(=O)(=O)c1ccc(Cl)cc1)NO`, the inhibitory constant (Ki) amounted to 5 nM in assay [1], 4 nM in assay [2], 46 nM in assay [3] and 3 nM in assay [4].
The like results for `O=C(CN(Cc1ccc([N+](=O)[O-])cc1)S(=O)(=O)c1ccc(Br)cc1)NO` were, in that order, 21 nM, 21 nM, 25 nM and 13 nM.
The like results for `Cc1ccc(S(=O)(=O)NC(=O)N(CC(=O)NO)Cc2ccc([N+](=O)[O-])cc2)cc1` were, in that order, 8 nM, 6 nM, 54 nM and 6 nM.
For `CC(=O)Nc1ccc(S(=O)(=O)N(CC(=O)NO)Cc2ccc([N+](=O)[O-])cc2)cc1`, the Ki in assay [1] was 12 nM; in assay [2], 9 nM; in assay [3], 14 nM; in assay [4] it was 8 nM.
The like results for `O=C(CN(Cc1ccc([N+](=O)[O-])cc1)S(=O)(=O)c1cccc(C(=O)O)c1)NO` were, in that order, 2.5 nM, 3.3 nM, 41 nM and 3 nM.
For `CN(C)S(=O)(=O)N(CC(=O)NO)Cc1ccc([N+](=O)[O-])cc1`, the inhibitory constant (Ki) in assay [1] amounted to 43 nM; in assay [2], 35 nM; in assay [3], 26 nM; in assay [4], 36 nM.
Turning to `O=C(CN(Cc1ccc([N+](=O)[O-])cc1)S(=O)(=O)c1ccc([N+](=O)[O-])c(Cl)c1)NO`, the inhibition constant (Ki) came to 7 nM in assay [1], 6 nM in assay [2], 31 nM in assay [3] and 7 nM in assay [4].
On to `Cc1ccc(S(=O)(=O)NC(=O)Nc2cccc(S(=O)(=O)N(CC(=O)O)Cc3ccc([N+](=O)[O-])cc3)c2)cc1`, for which the inhibition constant (Ki) is 21 nM in assay [1], 30 nM in assay [2], more than 100 nM in assay [3] and 21 nM in assay [4].
For `Cc1cc(C)c(S(=O)(=O)N(CC(=O)NO)Cc2ccc([N+](=O)[O-])cc2)c(C)c1`, the inhibition constant Ki amounted to 39 nM in assay [1], 29 nM in assay [2], 36 nM in assay [3] and 25 nM in assay [4].
The like results for `O=C(CN(Cc1ccc([N+](=O)[O-])cc1)C(=O)Nc1ccc(Cl)c(Cl)c1)NO` were, in that order, 7 nM, 5 nM, 31 nM and 6 nM.
As for `O=C(CN(Cc1ccc([N+](=O)[O-])cc1)S(=O)(=O)c1ccc(C(=O)O)cc1)NO`, the Ki is 2.8 nM in assay [1], 2.4 nM in assay [2], 34 nM in assay [3] and 2.5 nM in assay [4].
Taken in the same sequence, the figures for `O=C(O)CN(Cc1ccc([N+](=O)[O-])cc1)S(=O)(=O)c1cccc(NC(=O)NS(=O)(=O)c2ccccc2)c1` were 22 nM, 27 nM, more than 100 nM and 19 nM.
Consider `O=C(CN(Cc1ccc([N+](=O)[O-])cc1)S(=O)(=O)c1cccc(NC(=O)NS(=O)(=O)c2ccc(Cl)cc2)c1)NO`, for which the inhibition constant (Ki) in assay [1] was determined as 1.6 nM; in assay [2], 1.3 nM; in assay [3] it was 50 nM; in assay [4], 1.5 nM.
Regarding `O=C(CN(Cc1ccc([N+](=O)[O-])cc1)S(=O)(=O)c1cc(Cl)ccc1Cl)NO`, the inhibition constant Ki was determined as 17 nM in assay [1], 13 nM in assay [2], 9 nM in assay [3] and 10 nM in assay [4].
Regarding `Cc1ccc(S(=O)(=O)NC(=O)Nc2ccc(S(=O)(=O)N(CC(=O)O)Cc3ccc([N+](=O)[O-])cc3)cc2)cc1`, the Ki came to 25 nM in assay [1], 28 nM in assay [2], 94 nM in assay [3] and 24 nM in assay [4].
The like results for `O=C(CN(Cc1ccc([N+](=O)[O-])cc1)S(=O)(=O)c1ccc(NC(=O)NS(=O)(=O)c2ccccc2)cc1)NO` were, in that order, 0.9 nM, 0.7 nM, 61 nM and 0.6 nM.
Turning to `O=C(CN(Cc1ccc([N+](=O)[O-])cc1)S(=O)(=O)c1ccc(I)cc1)NO`, the Ki is 16 nM in assay [1], 17 nM in assay [2], 29 nM in assay [3] and 19 nM in assay [4].
Consider `CS(=O)(=O)N(CC(=O)NO)Cc1ccc([N+](=O)[O-])cc1`, for which the inhibition constant Ki is 30 nM in assay [1], 24 nM in assay [2], 75 nM in assay [3] and 19 nM in assay [4].
For `O=C(CN(Cc1ccc([N+](=O)[O-])cc1)C(=S)NC(=O)c1ccccc1)NO`, the inhibitory constant (Ki) turned out to be 1.4 nM in assay [1], 1.5 nM in assay [2], 37 nM in assay [3] and 2 nM in assay [4].
Taken in the same sequence, the figures for `O=C(O)CN(Cc1ccc([N+](=O)[O-])cc1)S(=O)(=O)c1cccc(NC(=O)NS(=O)(=O)c2ccc(F)cc2)c1` were 18 nM, 34 nM, more than 100 nM and 15 nM.
The like results for `O=C(CN(Cc1ccc([N+](=O)[O-])cc1)S(=O)(=O)c1ccc(NC(=O)NS(=O)(=O)c2ccc(Cl)cc2)cc1)NO` were, in that order, 1 nM, 1.1 nM, 50 nM and 0.8 nM.
On to `O=C(CN(Cc1ccc([N+](=O)[O-])cc1)S(=O)(=O)c1ccccc1[N+](=O)[O-])NO`, for which the inhibition constant (Ki) worked out at 14 nM in assay [1], 13 nM in assay [2], 59 nM in assay [3] and 15 nM in assay [4].
Taken in the same sequence, the figures for `O=C(CN(Cc1ccc([N+](=O)[O-])cc1)S(=O)(=O)C(F)(F)C(F)(F)C(F)(F)C(F)(F)C(F)(F)C(F)(F)C(F)(F)C(F)(F)F)NO` were 1.3 nM, 1.3 nM, 79 nM and 0.9 nM.
On to `Cc1ccccc1S(=O)(=O)NC(=O)Nc1ccc(S(=O)(=O)N(CC(=O)NO)Cc2ccc([N+](=O)[O-])cc2)cc1`, for which the Ki was 0.7 nM in assay [1], 1.5 nM in assay [2], 72 nM in assay [3] and 1.6 nM in assay [4].
The like results for `O=C(CN(Cc1ccc([N+](=O)[O-])cc1)S(=O)(=O)c1cccs1)NO` were, in that order, 10 nM, 12 nM, 14 nM and 13 nM.
On to `CN(C)c1cccc2c(S(=O)(=O)N(CC(=O)NO)Cc3ccc([N+](=O)[O-])cc3)cccc12`, for which the inhibition constant (Ki) in assay [1] was 53 nM; in assay [2], 58 nM; in assay [3], 83 nM; in assay [4], 41 nM.
Regarding `O=C(CN(Cc1ccc([N+](=O)[O-])cc1)S(=O)(=O)c1cccc(NC(=O)NS(=O)(=O)c2ccccc2)c1)NO`, the Ki was 1.3 nM in assay [1], 1 nM in assay [2], 60 nM in assay [3] and 1.2 nM in assay [4].
Taken in the same sequence, the figures for `O=C(CN(Cc1ccc([N+](=O)[O-])cc1)S(=O)(=O)C(Cl)(Cl)Cl)NO` were 25 nM, 19 nM, 24 nM and 17 nM.
Turning to `Cc1ccc(S(=O)(=O)NC(=O)Nc2cccc(S(=O)(=O)N(CC(=O)NO)Cc3ccc([N+](=O)[O-])cc3)c2)cc1`, the Ki in assay [1] amounted to 3.1 nM; in assay [2] it was 2.1 nM; in assay [3] it was 53 nM; in assay [4] it was 2.5 nM.
Taken in the same sequence, the figures for `O=C(CN(Cc1ccc([N+](=O)[O-])cc1)C(=O)Nc1cccc2ccccc12)NO` were 33 nM, 39 nM, more than 100 nM and 35 nM.
The like results for `O=C(CN(Cc1ccc([N+](=O)[O-])cc1)S(=O)(=O)c1ccc(F)cc1)NO` were, in that order, 14 nM, 15 nM, 19 nM and 15 nM.
Taken in the same sequence, the figures for `O=C(CN(Cc1ccc([N+](=O)[O-])cc1)Sc1ccc([N+](=O)[O-])cc1)NO` were 11 nM, 8 nM, 18 nM and 10 nM.
For `COc1ccc(S(=O)(=O)N(CC(=O)NO)Cc2ccc([N+](=O)[O-])cc2)cc1NC(=O)OC(C)(C)C`, the Ki worked out at 7 nM in assay [1], 7 nM in assay [2], 25 nM in assay [3] and 5 nM in assay [4].
With `CC(C)(C)OC(=O)Nc1cccc(S(=O)(=O)N(CC(=O)NO)Cc2ccc([N+](=O)[O-])cc2)c1`, the Ki amounted to 14 nM in assay [1], 15 nM in assay [2], 26 nM in assay [3] and 11 nM in assay [4].
